US6653442B1, “Protegrins” (priority 1993, dated 2003)
Bridge positions count the residues as written; N and C are the ends. Square brackets hold non-standard residues; d marks the D form. Ends that are not written are not given here. Peptide text beside a SMILES is read from it. Sar = CNCC(=O)O

Assays:
[1] = tested on: methicillin resistant Staphylococcus aureus (MRSA); assay: Minimal inhibitory concentration, MRSA; format: cell-based
Protocol: (§1) The minimal inhibitory concentrations (MICs) of a variety of protegrins were determined against the following organisms: methicillin resistant Staphylococcus aureus (MRSA), Pseudomonas aeruginosa (Psa), vancomycin resistant Enterococcus fecium (VREF), Candida albicans (Candid) and Escherichia coli (E. Co), and are shown in Table 9.

[2] = tested on: Pseudomonas aeruginosa (Psa); assay: Minimal inhibitory concentration, Psa; format: cell-based
Protocol: as §1

[3] = tested on: vancomycin resistant Enterococcus fecium (VREF); assay: Minimal inhibitory concentration, VREF; format: cell-based
Protocol: as §1

[4] = tested on: N. gonorrhoeae strains FA 19 and F 62; details: strains FA 19 and F 62
Protocol: Nonpiliated transparent variants of strains FA 19 and F 62 were propagated on GCB agar plates containing glucose and iron supplements overnight at 37° C. under 3.8% V/V CO2. These strains were chosen for their adaptability to the assay.
The overnight growth is removed from the agar plate and suspended in GCB broth containing supplements and sodium bicarbonate and grown with shaking at 37° C. to mid log phase. The culture is diluted 1:100 in GCB broth to give about 10^6 CFU/ml and serial dilutions were plated onto GCB agar.
Ten μl of each dilution is added to a sterile polystyrene tube containing 90 μl of diluted bacteria and the tubes are shaken at 37° C. for 45 minutes. The contents are serially diluted 1:10 and plated on to GCB agar plates which are incubated in a CO2 incubator. CFU are counted after 24 hours and the log bactericidal activity calculated.

[5] = Autoclaving, retained antimicrobial activity; format: physicochemical; details: autoclaved
L. monocytogenes = assay: Radial diffusion assay in 25 mM borate buffer, L. monocytogenes; format: cell-based
[6] = Radial diffusion assay in 25 mM borate buffer (Table 4); format: cell-based; details: buffer (25 mM borate buffer, pH 7.4)
Protocol: Contact lens solutions are typically formulated with borate buffered physiological saline and may or may not contain EDTA in addition. Protegrins in the form of the synthetic PG-3 amide and synthetic PG acid were tested generally in the assay described in Example 1 wherein all underlay gels contain 25 mM borate buffer, pH […] tryptocase soy broth ([…] TSB powder) and […]. Additions included either 100 mM NaCl, 1 mM EDTA or a combination thereof. Other test compounds used as controls were the defensin NP-1 and lysozyme. Dose response curves were determined.

Candida albicans = assay: Radial diffusion assay in 25 mM borate buffer, Candida albicans; format: cell-based
[7] = tested on: lipid polysaccharide (LPS) of E. coli strain 0.55B5; assay: Limulus amebocyte lysate (LAL) test for endotoxin binding; format: biochemical
[8] = 2.5 μg peptide in 0.2 ml, LPS 0.05 endotoxin unit/ml

R-G-G-R-L-C-Y-C-R-X-R-F-C-V-C-V-G-R-OH (X=NMeG) (RGGRLCYCR[Sar]RFCVCVGR-OH; ends and bridges not checked) [IB-341]
minimal inhibitory concentration (MIC) MRSA [1]: 5.33 | minimal inhibitory concentration (MIC) Psa [2]: 2 | minimal inhibitory concentration (MIC) VREF [3]: 1

CC(C)C[C@H](NC(=O)CNC(=O)CNC(=O)CNC(=O)[C@@H](N)CCCNC(=N)N)C(=O)N[C@H]1CSSC[C@@H](C(=O)N[C@H](C(=O)NCC(=O)N[C@@H](CCCNC(=N)N)C(N)=O)C(C)C)NC(=O)[C@H](C(C)C)NC(=O)[C@@H]2CSSC[C@H](NC(=O)[C@H](Cc3ccc(O)cc3)NC1=O)C(=O)N[C@@H](CCCNC(=N)N)C(=O)N[C@@H](CCCNC(=N)N)C(=O)N[C@@H](CCCNC(=N)N)C(=O)N[C@@H](Cc1ccccc1)C(=O)N2 [sPG-3 amide] (H-RGGGLCYCRRRFCVCVGR-NH2; disulfide 6-15, 8-13; N-terminus assumed)
log reduction in CFU per ml [4]: > 5 log | antimicrobial activity against E. coli, L. monocytogenes and C. albicans after autoclaving [5]: retaining full antimicrobial activity in all cases | ESTIMATED MINIMAL BACTERICIDAL CONCENTRATIONS (L. monocytogenes; 25 mM borate buffer): 21.0 µg/mL | ESTIMATED MINIMAL BACTERICIDAL CONCENTRATIONS (L. monocytogenes; borate buffer + 120 mM NaCl): 5.7 µg/mL | ESTIMATED MINIMAL BACTERICIDAL CONCENTRATIONS (L. monocytogenes; borate buffer + EDTA & NaCl): 5.2 µg/mL | ESTIMATED MINIMAL FUNGICIDAL CONCENTRATIONS [6]: 13.0 µg/mL | ESTIMATED MINIMAL FUNGICIDAL CONCENTRATIONS (Candida albicans; 25 mM borate buffer): 19.0 µg/mL | ESTIMATED MINIMAL FUNGICIDAL CONCENTRATIONS (Candida albicans; borate buffer + 120 mM NaCl): 7.7 µg/mL | ESTIMATED MINIMAL FUNGICIDAL CONCENTRATIONS (Candida albicans; borate buffer + EDTA & NaCl): 7.0 µg/mL | gel formation in LAL test ([7]; 0.5 μg peptide, 0.05 E.U.): no gel | gel formation in LAL test ([7]; 1.0 μg peptide, 0.05 E.U.): no gel | gel formation in LAL test ([7]; 1.0 μg peptide, 0.10 E.U.): no gel | gel formation in LAL test ([7]; 1.0 μg peptide, 0.25 E.U.): no gel | gel formation in LAL test [7, 8]: no gel | gel formation in LAL test ([7]; 2.5 μg peptide, 0.05 E.U.): no gel | gel formation in LAL test ([7]; 2.5 μg peptide, 0.10 E.U.): no gel | gel formation in LAL test ([7]; 2.5 μg peptide, 0.25 E.U.): no gel

CC(C)C[C@H](NC(=O)CNC(=O)CNC(=O)CNC(=O)[C@@H](N)CCCNC(=N)N)C(=O)N[C@H]1CSSC[C@@H](C(=O)N[C@H](C(=O)NCC(=O)N[C@@H](CCCNC(=N)N)C(=O)O)C(C)C)NC(=O)[C@H](C(C)C)NC(=O)[C@@H]2CSSC[C@H](NC(=O)[C@H](Cc3ccc(O)cc3)NC1=O)C(=O)N[C@@H](CCCNC(=N)N)C(=O)N[C@@H](CCCNC(=N)N)C(=O)N[C@@H](CCCNC(=N)N)C(=O)N[C@@H](Cc1ccccc1)C(=O)N2 [sPG-3 acid] (H-RGGGLCYCRRRFCVCVGR-OH; disulfide 6-15, 8-13; N-terminus assumed)
log reduction in CFU per ml [4]: > 5 log | antimicrobial activity against E. coli, L. monocytogenes and C. albicans after autoclaving [5]: retaining full antimicrobial activity in all cases | ESTIMATED MINIMAL BACTERICIDAL CONCENTRATIONS (L. monocytogenes; 25 mM borate buffer): 30.0 µg/mL | ESTIMATED MINIMAL BACTERICIDAL CONCENTRATIONS (L. monocytogenes; borate buffer + 120 mM NaCl): 7.0 µg/mL | ESTIMATED MINIMAL BACTERICIDAL CONCENTRATIONS (L. monocytogenes; borate buffer + EDTA & NaCl): 7.0 µg/mL | ESTIMATED MINIMAL FUNGICIDAL CONCENTRATIONS [6]: 15.0 µg/mL | ESTIMATED MINIMAL FUNGICIDAL CONCENTRATIONS (Candida albicans; 25 mM borate buffer): 19.0 µg/mL | ESTIMATED MINIMAL FUNGICIDAL CONCENTRATIONS (Candida albicans; borate buffer + 120 mM NaCl): 9.2 µg/mL | ESTIMATED MINIMAL FUNGICIDAL CONCENTRATIONS (Candida albicans; borate buffer + EDTA & NaCl): 9.3 µg/mL | gel formation in LAL test [7, 8]: trace | gel formation in LAL test ([7]; 5 μg peptide in 0.2 ml, LPS 0.05 endotoxin unit/ml): no gel | gel formation in LAL test ([7]; 10 μg peptide in 0.2 ml, LPS 0.05 endotoxin unit/ml): no gel

R-G-G-R-L-C-Y-C-R-X-R-F-C-V-C-V-G-R (X=NMeG) (RGGRLCYCR[Sar]RFCVCVGR-NH2; ends and bridges not checked) [IB-342]
minimal inhibitory concentration (MIC) MRSA [1]: 4 | minimal inhibitory concentration (MIC) Psa [2]: 1.67 | minimal inhibitory concentration (MIC) VREF [3]: 0.83
